What was measured:
Format in all cases: cell-based
[1] = tested on: K-562; test: Inhibition of cells growth by colorimetric assay (SRB), K-562
Experimental: (§1) 2°.—Inhibition of Cells Growth by Colorimetric Assay.
(§2) A colorimetric type of assay, using sulforhodamine B (SRB) reaction has been adapted for a quantitative measurement of cell growth and viability [following the technique described by Philip Skehan, et al. (1990), New colorimetric cytotoxicity assay for anticancer drug screening, J. Natl. Cancer Inst., 82:1107-1112]
(§3) This form of the assay employs 96 well cell culture microplates of 9 mm diameter (Faircloth, 1988; Mosmann, 1983). Most of the cell lines are obtained from American Type Culture Collection (ATCC) derived from different human cancer types.
(§4) Cells are maintained in RPMI 1640 10% FBS, supplemented with 0.1 g/l penicillin and 0.1 g/l streptomycin sulfate and then incubated at 37° C., 5% CO2 and 98% humidity. For the experiments, cells were harvested from subconfluent cultures using trypsin and resuspended in fresh medium before plating.
(§5) Cells are seeded in 96 well microtiter plates, at 5×10^3 cells per well in aliquots of 195 μl medium, and they are allowed to attach to the plate surface by growing in drug free medium for 18 hours. Afterward, samples are added in aliquots of 5 μl in a ranging from 10 to 10^−8 μg/ml, dissolved in DMSO/EtOH/PBS (0.5:0.5:99). After 48 hours exposure, the antitumor effect are measured by the SRB methodology: cells are fixed by adding 50 μl of cold 50% (wt/vol) trichloroacetic acid (TCA) and incubating for 60 minutes at 4° C. Plates are washed with deionized water and dried. One hundred μl of SRB solution (0.4% wt/vol in 1% acetic acid) is added to each microtiter well and incubated for 10 minutes at room temperature. Unbound SRB is removed by washing with 1% acetic acid. Plates are air dried and bound stain is solubilized with Tris buffer. Optical densities are read on a automated spectrophotometric plate reader at a single wavelength of 490 nm.
(§6) The values for mean+/−SD of data from triplicate wells are calculated. Some parameters for cellular responses can be calculated: GI=growth inhibition, TGI=total growth inhibition (cytostatic effect) and LC=cell killing (cytotoxic effect).
(§7) Obtained results may predict the usefulness of a certain drug as a potential cancer treatment. For this technique, compounds which show GI50 values smaller than 10 μg/ml are selected to continue with further studies. GI50's data allow to predict that not only could a drug be cystostatic, but also it could have a potential in terms of tumor reduction.

[2] = tested on: A-549; test: Inhibition of cells growth by colorimetric assay (SRB), A-549
Method in brief: (§8)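 Cells in RPMI 1640 with 10% FBS were seeded at 5×10^3 per well, allowed 18 h to attach, then exposed to compound (10 to 10^−8 μg/ml, in DMSO/EtOH/PBS 0.5:0.5:99) for 48 h. After TCA fixation and SRB staining, bound dye was solubilized in Tris and OD read at 490 nm; GI, TGI and LC derived from triplicates.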

[3] = tested on: SK-MEL-28; test: Inhibition of cells growth by colorimetric assay (SRB), SK-MEL-28
Experimental: as §1, §2, §3, §4, §5, §6, §7

[4] = tested on: HT-29; test: Inhibition of cells growth by colorimetric assay (SRB), HT-29
Method in brief: as §8

[5] = tested on: LoVo; test: Inhibition of cells growth by colorimetric assay (SRB), LoVo
Experimental: as §1, §2, §3, §4, §5, §6, §7

[6] = tested on: LoVo-Dox; test: Inhibition of cells growth by colorimetric assay (SRB), LoVo-Dox
Experimental: as §1, §2, §3, §4, §5, §6, §7

[7] = tested on: DU-145; test: Inhibition of cells growth by colorimetric assay (SRB), DU-145
Experimental: as §1, §2, §3, §4, §5, §6, §7

[8] = tested on: LNCaP; test: Inhibition of cells growth by colorimetric assay (SRB), LNCaP
Experimental: as §1, §2, §3, §4, §5, §6, §7

[9] = tested on: SK-BR-3; test: Inhibition of cells growth by colorimetric assay (SRB), SK-BR-3
Experimental: as §1, §2, §3, §4, §5, §6, §7

[10] = tested on: IGROV-1; test: Inhibition of cells growth by colorimetric assay (SRB), IGROV-1
Experimental: as §1, §2, §3, §4, §5, §6, §7

[11] = tested on: IGROV-ET; test: Inhibition of cells growth by colorimetric assay (SRB), IGROV-ET
Experimental: as §1, §2, §3, §4, §5, §6, §7

[12] = tested on: SK-OV-3; test: Inhibition of cells growth by colorimetric assay (SRB), SK-OV-3
Experimental: as §1, §2, §3, §4, §5, §6, §7

[13] = tested on: PANC-1; test: Inhibition of cells growth by colorimetric assay (SRB), PANC-1
Experimental: as §1, §2, §3, §4, §5, §6, §7

[14] = tested on: HMEC1; test: Inhibition of cells growth by colorimetric assay (SRB), HMEC1
Experimental: as §1, §2, §3, §4, §5, §6, §7

In the case of `COc1cc2c(cc1O)CCN[C@]21CS[C@@H]2c3c(O)c(C)c4c(c3[C@H](COC1=O)N1C2[C@H]2c3c(cc(C)c(OC)c3O)C[C@@H]([C@@H]1O)N2C)OCO4` (stereo partly drawn) [Et-701], the GI50 ([1]; Homo sapiens, K562, 48 h, SRB assay, 48 hours exposure, read-out: K-562 GI50) is reported as 1.33 nM, the LC50 (50% cell killing) ([1]; Homo sapiens, K562, 48 h, read-out: K-562 LC50, SRB assay, 48 hours exposure) is reported as 11.3 nM and the “K-562 TGI” value ([1]; SRB assay, 48 hours exposure) is reported as 3.50E-09. The GI50 ([2]; Homo sapiens, A549, 48 h, SRB assay, 48 hours exposure, read-out: A-549 GI50) was 2.99 nM, the LC50 (concentration for 50% cell killing) ([2]; Homo sapiens, A549, 48 h, read-out: A-549 LC50, SRB assay, 48 hours exposure) was 13.9 nM and the “A-549 TGI” value ([2]; SRB assay, 48 hours exposure) was 7.06E-09. For the same molecule, the GI50 ([3]; Homo sapiens, SK-MEL-28, 48 h, SRB assay, 48 hours exposure, read-out: MEL-28 GI50) was 9.74 nM, the CC50 ([3]; Homo sapiens, SK-MEL-28, 48 h, read-out: MEL-28 LC50, SRB assay, 48 hours exposure) was 122 nM and the “MEL-28 TGI” value ([3]; SRB assay, 48 hours exposure) was 3.50E-08. For the same molecule, the GI50 ([4]; Homo sapiens, HT-29, 48 h, SRB assay, 48 hours exposure, read-out: HT-29 GI50) was 4.24 nM, the LC50 (concentration for 50% cell killing) ([4]; Homo sapiens, HT-29, 48 h, read-out: HT-29 LC50, SRB assay, 48 hours exposure) was 9.56 µM and the “HT-29 TGI” value ([4]; SRB assay, 48 hours exposure) was 3.72E-08. The GI50 ([5]; Homo sapiens, LoVo, 48 h, SRB assay, 48 hours exposure, read-out: LOVO GI50) was 4.56 nM, the LC50 (concentration for 50% cell killing) ([5]; Homo sapiens, LoVo, 48 h, read-out: LOVO LC50, SRB assay, 48 hours exposure) was 3.75 µM and the “LOVO TGI” value ([5]; SRB assay, 48 hours exposure) was 1.18E-08. For the same molecule, the GI50 ([6]; Homo sapiens, 48 h, SRB assay, 48 hours exposure, read-out: LOVO-DOX GI50) was 50.6 nM, the CC50 ([6]; Homo sapiens, 48 h, read-out: LOVO-DOX LC50, SRB assay, 48 hours exposure) was 13.9 µM and the “LOVO-DOX TGI” value ([6]; SRB assay, 48 hours exposure) was 5.46E-07. For the same molecule, the GI50 ([7]; Homo sapiens, DU-145, 48 h, SRB assay, 48 hours exposure, read-out: DU-145 GI50) was 4.04 nM, the CC50 ([7]; Homo sapiens, DU-145, 48 h, read-out: DU-145 LC50, SRB assay, 48 hours exposure) was 2970 nM and the “DU-145 TGI” value ([7]; SRB assay, 48 hours exposure) was 9.70E-09. For the same molecule, the GI50 ([8]; Homo sapiens, LNCaP, 48 h, read-out: LNCAP GI50, SRB assay, 48 hours exposure) was 0.324 nM, the CC50 ([8]; Homo sapiens, LNCaP, 48 h, read-out: LNCAP LC50, SRB assay, 48 hours exposure) was 5.28 nM and the “LNCAP TGI” value ([8]; SRB assay, 48 hours exposure) was 1.56E-09. The GI50 ([9]; Homo sapiens, SK-BR-3, 48 h, SRB assay, 48 hours exposure, read-out: SK-BR3 GI50) was 2.21 nM, the CC50 ([9]; Homo sapiens, SK-BR-3, 48 h, read-out: SK-BR3 LC50, SRB assay, 48 hours exposure) was 27.5 nM and the “SK-BR3 TGI” value ([9]; SRB assay, 48 hours exposure) was 6.25E-09. The GI50 ([10]; Homo sapiens, IGROV-1, 48 h, SRB assay, 48 hours exposure, read-out: IGROV GI50) was 2.33 nM, the CC50 ([10]; Homo sapiens, IGROV-1, 48 h, read-out: IGROV LC50, SRB assay, 48 hours exposure) was 11.1 nM and the “IGROV TGI” value ([10]; SRB assay, 48 hours exposure) was 5.08E-09. The GI50 ([11]; Homo sapiens, 48 h, SRB assay, 48 hours exposure, read-out: IGROV-ET GI50) was 16.4 nM, the CC50 ([11]; Homo sapiens, 48 h, read-out: IGROV-ET LC50, SRB assay, 48 hours exposure) was 3.75 µM and the “IGROV-ET TGI” value ([11]; SRB assay, 48 hours exposure) was 7.78E-08. For the same molecule, the GI50 ([12]; Homo sapiens, SK-OV-3, 48 h, SRB assay, 48 hours exposure, read-out: SK-OV3 GI50) was 2.1 nM, the LC50 ([12]; Homo sapiens, SK-OV-3, 48 h, read-out: SK-OV3 LC50, SRB assay, 48 hours exposure) was 9.85 µM and the “SK-OV3 TGI” value ([12]; SRB assay, 48 hours exposure) was 1.08E-08. The GI50 ([13]; Homo sapiens, PANC-1, 48 h, SRB assay, 48 hours exposure, read-out: PANC-1 GI50) was 4.61 nM, the LC50 (concentration for 50% net cell kill) ([13]; Homo sapiens, PANC-1, 48 h, read-out: PANC-1 LC50, SRB assay, 48 hours exposure) was 206 nM and the “PANC-1 TGI” value ([13]; SRB assay, 48 hours exposure) was 1.19E-08. The GI50 ([14]; Homo sapiens, HMEC-1, 48 h, SRB assay, 48 hours exposure, read-out: HMEC-1 GI50) was 3.99 nM, the LC50 ([14]; Homo sapiens, HMEC-1, 48 h, read-out: HMEC-1 LC50, SRB assay, 48 hours exposure) was 4.57 µM and the “HMEC-1 TGI” value ([14]; SRB assay, 48 hours exposure) was 1.35E-08.

Source: patent US7759345B2, “Antitumoral derivatives of ET-743” (priority 2001, dated 2010)
